# Laboratory results as given in US10981866B2 (THE UNITED STATES OF AMERICA, AS REPRESENTED BY THE …, priority 2017, dated 2021).
# Target: bovine serum albumin (Bos taurus, UniProt P02769)
# Assay: binding kinetics of EB-TATE and bovine serum albumin
# Settings: unlabeled EB-TATE
# Sequence of bovine serum albumin (P02769 25-607): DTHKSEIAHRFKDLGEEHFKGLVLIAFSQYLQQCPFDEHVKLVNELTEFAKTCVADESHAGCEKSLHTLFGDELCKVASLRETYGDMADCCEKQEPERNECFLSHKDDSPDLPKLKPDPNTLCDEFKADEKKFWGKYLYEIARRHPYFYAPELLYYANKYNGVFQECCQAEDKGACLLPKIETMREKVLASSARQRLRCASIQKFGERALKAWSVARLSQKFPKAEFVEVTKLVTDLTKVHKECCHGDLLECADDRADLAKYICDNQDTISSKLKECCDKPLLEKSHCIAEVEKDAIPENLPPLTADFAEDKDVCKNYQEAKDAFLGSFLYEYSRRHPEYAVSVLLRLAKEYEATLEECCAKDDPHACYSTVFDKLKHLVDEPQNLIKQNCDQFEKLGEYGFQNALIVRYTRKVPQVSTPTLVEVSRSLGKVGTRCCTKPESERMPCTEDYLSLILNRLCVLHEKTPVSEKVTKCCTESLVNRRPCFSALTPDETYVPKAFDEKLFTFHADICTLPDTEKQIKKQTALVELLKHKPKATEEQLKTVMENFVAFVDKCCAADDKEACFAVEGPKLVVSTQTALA
compound,measurement,value
Cc1cc(-c2ccc(NC(=O)[C@@H](CCCCNC(=O)CCN3C(=O)CC(SCCC(=O)N[C@H](Cc4ccccc4)C(=O)N[C@H]4CSSCC(C(=O)NC(C(=O)O)[C@@H](C)O)NC(=O)[C@H]([C@@H](C)O)NC(=O)[C@H](CCCCN)NC(=O)[C@@H](Cc5c[nH]c6ccccc56)NC(=O)[C@H](Cc5ccccc5)NC4=O)C3=O)NC(=O)CN3CCN(CC(=O)O)CCN(CC(=O)O)CCN(CC(=O)O)CC3)c(C)c2)ccc1N=Nc1ccc2c(S(=O)(=O)O)cc(S(=O)(=O)O)c(N)c2c1O (some centres unmarked) [EB-TATE],"Kd, affinity to bovine serum albumin",μM Kd affinity
same,"Kon and Koff, bovine serum albumin",high Kon and low Koff
